Experimental data as given in US20240327320A1, “NOVEL ROUTES OF CHEMICAL SYNTHESIS OF 20S(OH)D3, 20S,25(OH)2D3, 20S,23S(OH)2D3, AND 20S,23R(OH)2D3 AND THEIR MODIFICATION OF THE IMMUNE ACTIVITY OF PBMCS” (United State Government as represen ted by the Department …, priority 2023, published 2024).

How the values were obtained:
[1] = molecular target: T1, Mouse CYP27B1 (Mus musculus, UniProt O35084); assay: CYP27B1 activity on secosteroids in phospholipid vesicles (1α-hydroxylation); assay type: in vitro ADME; conditions: for 1α-hydroxylase activity: 0.025 mol secosteroid/mol phospholipid, CYP27B1 0.2 μM, mean±SD, n=3; for rate / efficiency of 1α-hydroxylation by CYP27B1, in words: phospholipid vesicles, mouse CYP27B1
T1 construct: made in house; host or cells: E. coli
T1 sequence (O35084 1-507): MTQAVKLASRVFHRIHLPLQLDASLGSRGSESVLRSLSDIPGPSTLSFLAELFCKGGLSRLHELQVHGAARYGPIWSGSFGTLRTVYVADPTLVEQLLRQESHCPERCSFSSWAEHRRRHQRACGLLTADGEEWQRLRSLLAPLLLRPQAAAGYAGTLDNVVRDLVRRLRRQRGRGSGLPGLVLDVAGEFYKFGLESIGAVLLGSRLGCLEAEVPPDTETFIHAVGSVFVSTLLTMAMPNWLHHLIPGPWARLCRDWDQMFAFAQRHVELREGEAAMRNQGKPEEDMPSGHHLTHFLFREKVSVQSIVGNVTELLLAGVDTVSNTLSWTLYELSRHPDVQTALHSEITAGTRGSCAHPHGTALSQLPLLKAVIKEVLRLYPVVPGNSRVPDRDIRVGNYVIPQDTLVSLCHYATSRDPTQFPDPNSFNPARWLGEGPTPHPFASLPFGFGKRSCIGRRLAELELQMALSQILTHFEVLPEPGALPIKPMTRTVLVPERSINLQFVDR
Method: Mouse CYP27B1 was expressed in E. coli and purified (Tang E K, et. al., (2010) Drug Metabolism and Disposition, 38(9) 1553-9). CYP27B1 activity was measured on substrate incorporated into the membrane of phospholipid vesicles as described previously. Briefly, phospholipid vesicles were prepared by sonication of dioleoyl phosphatidylcholine, cardiolipin and secosteroid. Vesicles (510 μM phospholipid) were then incubated at 37° C. with CYP27B1 (0.2 μM) in buffer comprising 20 mM Hepes, pH 7.4, 100 mM NaCl, 0.1 mM EDTA, 0.1 mM and dithiothreitol, adrenodoxin (15 μM), adrenodoxin reductase (0.4 μM), glucose-6-phosphate (2 mM), glucose-6-phosphate dehydrogenase (2 U/mL) and NAPDH (50 μM) in a volume of 0.5 ml. After reaction (5 or 20 min), the incubation mixture was extracted 3-times with 2.5 ml dichloromethane, extracts combined, dried under N2 gas and dissolved in 64% methanol. Samples were analysed by reverse phase HPLC on a Grace Alltima column (25×0.46 cm) using a gradient of 64 to 100% methanol for 15 min followed by 100% methanol for 30 min, at a flow rate of 0.5 ml/min. Metabolites were detected with a UV detector at 265 nm.
All four chemically synthesized secosteroids were converted to their expected 1α-hydroxy derivatives by CYP27B1, and identified on the basis of previous studies on the enzymatically and/or chemically derived substrates (Li W, et. al., (2010) Steroids 75(12) 926-35, Tang E K, et. al., (2013) Drug metabolism and disposition: the biological fate of chemicals 41(5) 1112-24, Lin Z, et. al., (2016) J Med Chem 59(10) 5102-8, Tang E K, et. al., (2010) Drug metabolism and disposition: the biological fate of chemicals 38(9) 1553-9). Secosteroids were incorporated into phospholipid vesicles at a ratio of 0.025 mol secosteroid/mol phospholipid and incubated with mouse CYP27B1 (0.2 μM) for 20 min for all substrates except 20S,25(OH)2D3 which was incubated for 5 min. Extracted samples were analyzed by reverse-phase HPLC. Data are mean±SD, n=3. […] In summary, the efficiency of metabolism of D3 derivatives by CYP27B1 is as follows: 20S,25(OH)2D3>>20S,23S(OH)2D3>20S(OH)D3=20S,23R(OH)2D3.

[2] = test system: Human epidermal keratinocytes (HEKn); assay: Protein expression, immunofluorescence; assay type: cell-based; conditions: 48 h, FIG. 7C
Method: HEKn were cultured until the third passage before treatment. Keratinocytes were plated in a 96-well plate and at 80% confluence, 10^-7 M secosteroids (or 0.1% ethanol control) were added and cells were incubated for 48 h. Cells were fixed and stained with anti-involucrin (1:20, GTX-14504; Genetex, Irvine, CA, USA) anti-CK10 (1:300, Santa Cruz Biotechnology), anti-catalase (1:200, Santa Cruz Biotechnology) or anti-CK14 antibody with Alexa Fluor® 488 (1:500, Santa Cruz Biotechnology) and imaged at 10× magnification in Cytation 5 reader as described before (Chaiprasongsuk A, et. al., (2020) Free Radic Biol Med 155 87-9845; Slominski A T, et. al., (2017) Sci Rep 7(1) 11434; Chaiprasongsuk A, et. al., (2020) Int J Mol Sci 21(24)). Nuclei were stained with blue DAPI. Fluorescence intensity was measured using the Cytation 5 reader and ImageJ, and data were analyzed using Graph Pad Prizm.
FIG. 7C and FIG. 7D represent protein expression studies. Values are presented as percentage of fluorescence positive cells (FIG. 7C) or as mean fluorescence per cell (% of all cells (FIG. 7D). The values in FIG. 7D were calculated as mean green fluorescence vs DAPI blue fluorescence measured in ImageJ. Data are means±SD (n=3) and were analyzed using Student's t-test with p<0.05 (*), p<0.01 (**) or p<0.001 (***).

| Compound | 1α-hydroxylase activity ([1]; incubated 20 min) | rate / efficiency of 1α-hydroxylation by CYP27B1, in words [1] | protein levels of involucrin, CK10, CK14, and catalase [2] | 1α-hydroxylase activity ([1]; incubated 5 min) |
| --- | --- | --- | --- | --- |
| C=C1CC[C@H](O)C/C1=C/C=C1\CCC[C@@]2(C)[C@H]1CC[C@@H]2[C@@](C)(O)CCCC(C)C [20S(OH)D3, (20S)-20-Hydroxyvitamin D3] | 0.135 ± 0.005 mol product/min/mol CYP27B1 | relatively poorer substrate for CYP27B1 | increasing the levels of involucrin, CK10, CK14, and catalase | – |
| C=C1CC[C@H](O)C/C1=C/C=C1\CCC[C@@]2(C)[C@H]1CC[C@@H]2[C@@](C)(O)C[C@H](O)CC(C)C [20S,23R(OH)2D3, (20S,23R)-20,23-Dihydroxyvitamin D3] | 0.117 ± 0.027 mol product/min/mol CYP27B1 | – | increasing the levels of involucrin, CK10, CK14, and catalase | – |
| C=C1CC[C@H](O)C/C1=C/C=C1\CCC[C@@]2(C)[C@H]1CC[C@@H]2[C@@](C)(O)C[C@@H](O)CC(C)C [20S,23S(OH)2D3, (20S,23S)-20,23-Dihydroxyvitamin D3] | 0.258 ± 0.020 mol product/min/mol CYP27B1 | metabolized approximately twice as fast as the non-natural 20S,23R-isomer | increasing the levels of involucrin, CK10, CK14, and catalase | – |
| C=C1CC[C@H](O)C/C1=C/C=C1\CCC[C@@]2(C)[C@H]1CC[C@@H]2[C@@](C)(O)CCCC(C)(C)O [20S,25(OH)2D3, (20S)-20,25-Dihydroxyvitamin D3] | – | high rate of 1α-hydroxylation | increasing the levels of involucrin, CK10, CK14, and catalase | 7.98 ± 0.24 mol product/min/mol CYP27B1 |
